Source: patent US5698567A, “Heterocyclic spiro compounds” (Adir Et Compagnie, priority 1995, dated 1997)
Where a name gives a salt, the structure may show the parent alone.

Key:
5-lipoxygenase [1] = experiment: Inhibition of the synthesis of LTB4 by the peritoneal PMN of rats in vitro (5-lipoxygenase-inhibiting activity); assay type: cell-based, rat; conditions: for LTB4 % Inhibition: rat peritoneal PMN; for LTB4 % Inhibition / IC50: A23187 10^-6 M; for IC50: rat peritoneal PMN in vitro
From the text: 1.1 Determination of 5-1ipoxygenase-inhibiting activity in vitro (see Goldyne M. E., Burrish G. F., Poubelle P. and Borgeat P., Arachidonic Acid Metabolism among human mononuclear leukocytes. The Journal of Biological Chemistry. Vol. 259, N° 4, p. 8815-8819, 1984, and New Chang C. and Gin Wensu. Stimulation of 5-Lipoxygenase Activity in Polymorphonuclear Leukocytes of Rats by Caseinate Treatment. Biochemical Pharmacology. Vol. 36, N° 8, p. 3033-3036, 1987).
(§1) 5-Lipoxygenase-inhibiting activity was determined on peritoneal leukocytes of rats. Leukocytosis is induced in male OFA rats (IFFA CREDO) weighing 200-250 g by the intraperitoneal injection of 12% sodium caseinate. 18 hours later, the cells are collected by washing the abdominal cavity. The number of cells is adjusted to 2×10^6 /ml.
(§2) The cell suspension is incubated for 10 minutes at 37° C. in the presence of Ca^2+ 5×10^-4 M and Mg^2+ 2×10^-3 M and of various concentrations of the test products. The cells are then stimulated with the calcium ionophore A23187 at a concentration of 10^-6 M for 5 minutes at 37° C. Controls are carded out by incubating the cells with the solvent for the products: 2% DMSO.
After stopping the reaction at +4° C. and centrifugation, the quantity of LTB4 in ng/2×10^6 cells in the supernatants is determined by the E.I.A. method (Statlergenes France). The percentage inhibition is calculated as follows: [formula]
(§3) Metabolism of arachidonic acid by the peritoneal PMN of rats stimulated
(§4) for 5 minutes in vitro by the calcium ionophore (A23187): 10^-6 M.
(§5) Incubation of the products with the cells for 10 minutes prior to
(§6) stimulation with the ionophore.

[2] = test system: synthesis of PGE2 by the peritoneal PMN of rats; experiment: Inhibition of the synthesis of PGE2 by the peritoneal PMN of rats in vitro; assay type: cell-based, rat; conditions: A23187; for inhibition at 100 µM: 10^-4 M; for inhibition at 100 µM / inhibition at 10 µM: rat peritoneal PMN; for inhibition at 10 µM: 10^-5 M; for IC50: rat peritoneal PMN in vitro
Method: as §1, §2, §3, §4, §5, §6

5-lipoxygenase [3] = experiment: Inhibition of the synthesis of LTB4 in total blood of rats ex vivo (5-lipoxygenase-inhibiting activity); design: species or system rat; conditions: 60 μmol/kg p.o., 1 h; A23187 5 × 10^-5 M, n = 8
Method: 1.2 Determination of 5-lipoxygenase-inhibiting activity ex vivo (see Brideau C., Chan C., Charleson S., Denis D. et al. Pharmacology of MK-0591 (3-[1-(4-chlorobenzyl)-3-(t-butyl-thio)-5(quinolin-2-yl-methoxy)-indol-2-yl]-2,2-dimethyl propanoic acid), a Potent, Orally Active Leukotriene Biosynthesis Inhibitor. Can. J. Physiol. Pharmacol. Vol. 70, p. 799-807, 1992).
Inhibition of the biosynthesis of leukotrienes ex vivo following oral administration of the compounds was determined by studying the production of leukotrienes on total blood of rats stimulated in vitro by the calcium ionophore at time 1 hour after oral administration of the compounds.
The various products are administered in suspension in hydroxyethylcellulose: 0.5% H.E.C. at a dose of 60 μmol/kg. Each product is studied on a group of 8 different animals. A control group receives 0.5% H.E.C. only. After intracardial removal of the blood from each rat (male Sprague Dawley rats weighing 150-200 g IFFA CREDO), 1 ml of heparinised blood is incubated with the calcium ionophore A23 187 at a concentration of 5×10^-5 M for 10 minutes at 37° C. The blood is then centrifuged immediately and 100 μl of plasma are extracted in 400 μl of methanol. After centrifugation, the supernatant is evaporated to dryness under N2, the dry residue is taken up in buffer solution, and the LTB4 is assayed by the E.I.A. method (Stallergenes France).
The percentage inhibition is expressed as follows: [formula] 2/Results
Average relative to all controls n = 31
Products administered p.o. 1 hour before removal of blood n = 8
Total blood of rats stimulated for 10 minutes in vitro by the calcium

SMILES	IC50 (5-lipoxygenase [1])	LTB4 % Inhibition (5-lipoxygenase [1]; 10^-6 M)	LTB4 % Inhibition (5-lipoxygenase [1]; 10^-7 M)	also measured
O=C1NCC2(CCN(CC(c3ccc(Cl)cc3)c3ccc(OCc4ccc5ccccc5n4)cc3)CC2)O1 (racemic) [Example 8, (R,S)-8-{2-(4-chlorophenyl)-2-[4-(quinol-2-ylmethoxy)phenyl]ethyl}-3,8-diaza-1-oxa-2-oxospiro[4,5]decane dihydrochloride]	–	100%	100%	LTB4 % Inhibition (5-lipoxygenase [1]; 4.10^-8 M): 85%; LTB4 % Inhibition (5-lipoxygenase [1]; 10^-8 M): 22%; inhibition at 100 µM [2]: 72%; inhibition at 10 µM [2]: 32%; % Inhibition of the synthesis of LTB4 in total blood of rats ex vivo (5-lipoxygenase [3]): 46%
O=C1NCC2(CCN(C(c3ccccc3)c3ccc(OCc4ccc5ccccc5c4)cc3)CC2)O1 (racemic) [Example 23, (R,S)-8-{[4-(naphth-2-ylmethoxy)phenyl]phenylmethyl}-3,8-diaza-1-2-oxospiro[4,5]decane]	> 1 µM	–	9%	–
O=C1NCC2(CCN(CC(O)c3ccc(OCc4ccc5ccccc5n4)cc3)CC2)O1 (racemic) [Example 5, (R,S)-8-{2-hydroxy-2-[4-(quinol-2-ylmethoxy)phenyl]ethyl}-3,8-diaza-1-oxa-2-oxospiro[4,5]decane]	–	95%	15%	IC50 [2]: > 100 µM
O=C1NCC2(CCN(C(=O)C(c3ccc(OCc4ccc5ccccc5n4)cc3)C3CCCC3)CC2)O1 (racemic) [Example 43, (R,S)-8-{cyclopentyl-[4-(quinol-2-ylmethoxy)phenyl]acetyl}-3,8-diaza-1-oxa-2-oxospiro[4,5]decane hydrochloride]	> 0.1 µM	–	8%	–
O=C1NCC2(CCN(CCc3ccc(OCc4ccc5ccccc5n4)cc3)CC2)O1 [Example 2, 8-{2-[4-(quinol-2-ylmethoxy)phenyl]ethyl}-3,8-diaza-1-2-oxospiro[4,5]decane]	–	90%	–	inhibition at 100 µM [2]: 23%; IC50 [2]: > 100 µM
O=C1NCC2(CCN(CC(=O)c3ccc(OCc4ccc5ccccc5n4)cc3)CC2)O1 [Example 28, 8-{2-oxo-2-[4-(quinol-2-ylmethoxy)phenyl]ethyl}-3,8-diaza-1-oxa-2-oxospiro[4,5]decane]	> 1 µM	37%	–	–
O=C1NC2(CCN(CC(c3ccccc3)c3ccc(OCc4ccc5ccccc5n4)cc3)CC2)CO1 (racemic) [Example 11, (R,S)-8-{2-phenyl-2-[4-(quinol-2-ylmethoxy)phenyl]ethyl}-1,8-diaza-3-oxa-2-oxospiro[4,5]decane]	> 0.1 µM	–	38%	LTB4 % Inhibition (5-lipoxygenase [1]; 10^-5 M): 76%
O=C1NCC2(CCN(CCc3ccccc3)CC2)O1 [fenspiride, 8(2-phenylethyl)-3,8-diaza-1-oxa-2-oxospiro[4,5]decane, reference compound]	–	–	–	activity of reference product tested under the same conditions (Table 1) (5-lipoxygenase [1]; 10^-4 M): inactive
CC1NC(=O)OC12CCN(CC(c1ccccc1)c1ccc(OCc3ccc4ccccc4n3)cc1)CC2 (racemic) [Example 13, (R,S), (R,S)-4-methyl-8-{2-phenyl-2-[4-quinol-2-ylmethoxy)phenyl]ethyl}-3,8-diaza-1-oxa-2-oxospiro[4,5]decane]	> 0.1 µM	–	21%	LTB4 % Inhibition (5-lipoxygenase [1]; 10^-5 M): 91%
Cn1c(=O)ccc2cc(COc3ccc(C(c4ccccc4)N4CCC5(CC4)CNC(=O)O5)cc3)ccc21 (racemic) [Example 25, (R,S)-8-{[4-(1-methyl-2-oxo-1H-quinol-6-ylmethoxy)phenyl]phenylmethyl}-3,8-diaza-1-oxa-2-oxospiro[4,5]decane]	–	7%	8%	–
O=C1OC2(CCN(CC(c3ccccc3)c3ccc(OCc4ccc5ccccc5n4)cc3)CC2)CN1CCc1ccccc1 (racemic) [Example 12, (R,S)-3-(2-phenylethyl)-8-{2-phenyl-2-[4-(quinol-2-ylmethoxy)phenyl]ethyl}-3,8-diaza-1-oxa-2-oxospiro[4,5]decane]	0.1 µM	–	53%	LTB4 % Inhibition (5-lipoxygenase [1]; 10^-5 M): 98%; inhibition at 100 µM [2]: 86%; inhibition at 10 µM [2]: 92%; IC50 [2]: < 10 µM
O=C1NCC2(CCN(CC(c3ccccc3)c3ccc(OCc4ccc(-c5ccccc5)cn4)cc3)CC2)O1 (racemic) [Example 9, (R,S)-8-{2-phenyl-2-[4-(5-phenylpyrid-2-ylmethoxy)phenyl]ethyl}-3,8-diaza-1-oxa-2-oxospiro[4,5]decane]	> 0.1 µM	–	–	–
Cn1c(=O)ccc2cc(COc3ccc(CCN4CCC5(CC4)CNC(=O)O5)cc3)ccc21 [Example 3, 8-{2-[4-[(1-methyl-2-oxo-1H-quinol-6-yl)methoxy]phenyl]ethyl}-3,8-diaza-1-oxa-2-oxospiro[4,5]decane]	> 100 µM	–	–	–
O=C1NCC2(CCN(CC(c3ccc(OCc4ccc5ccccc5n4)cc3)C3CCCC3)CC2)O1 (racemic) [Example 36, (R,S)-8-{2-cyclopentyl-2-[4-(quinol-2-ylmethoxy)phenyl]ethyl}-3,8-diaza-1-oxa-2-oxospiro[4,5]decane hydrochloride]	> 0.1 µM	–	–	–
O=C1NCC2(CCN(C(c3ccccc3)c3ccc(OCc4ccc(-c5ccccc5)cn4)cc3)CC2)O1 (racemic) [Example 26, (R,S)-8-{phenyl-[4-(5-phenylpyrid-2-ylmethoxy)phenyl]methyl}-3,8-diaza-1-oxa-2-oxospiro[4,5]decane]	> 0.1 µM	–	–	–
O=C1NCC2(CCN(C(=O)Cc3ccc(OCc4ccc5ccccc5n4)cc3)CC2)O1 [Example 29, 8-{[4-(quinol-2-ylmethoxy)phenyl]acetyl}-3,8-diaza-1-oxa-2-oxospiro[4,5]decane]	> 1 µM	18%	30%	–

Further lines, with some results ahead:

IC50 (5-lipoxygenase [1])	SMILES	LTB4 % Inhibition (5-lipoxygenase [1]; 10^-6 M)	LTB4 % Inhibition (5-lipoxygenase [1]; 10^-7 M)	also measured
> 1 µM	O=C1NCC2(CCN(CC(c3ccccc3)c3ccc(OCc4ccc5ccccc5c4)cc3)CC2)O1 (racemic) [Example 7, (R,S)-8-{2-[4-(naphth-2-ylmethoxy)phenyl]-2-phenylethyl}-3,8-diaza-1-oxa-2-oxospiro[4,5]decane]	–	36%	–
> 0.1 µM	c1ccc(C(CN2CCC3(CC2)OCCO3)c2ccc(OCc3ccc4ccccc4n3)cc2)cc1 (racemic) [Example 10, (R,S)-8-{2-phenyl-2-[4-(quinol-2-ylmethoxy)phenyl]ethyl}-8-aza-1,4-dioxaspiro[4,5]decane dihydrochloride]	–	28%	LTB4 % Inhibition (5-lipoxygenase [1]; 10^-5 M): 92%
> 1 µM	O=C1NCC2(CCN(CC(Cc3ccccc3)c3ccc(OCc4ccccc4)cc3)CC2)O1 (racemic) [Example 31, (R,S)-8-[2-(4-benzyloxyphenyl)-3-phenylpropyl]-3,8-diaza-1-oxa-2-oxospiro[4,5]decane hydrochloride]	16%	–	–
> 1 µM	O=C1NCC2(CCN(C(=O)c3ccc(OCc4ccc5ccccc5n4)cc3)CC2)O1 [Example 30, 8-[4-(quinol-2-ylmethoxy)benzoyl]-3,8-diaza-1-oxa-2-oxospiro[4,5]decane]	14%	–	–
> 1 µM	O=C1NCC2(CCN(CC(Cc3ccc(Cl)cc3)c3ccc(OCc4ccc(-c5ccccc5)cn4)cc3)CC2)O1 (racemic) [Example 35, (R,S)-8-{3-(4-chlorophenyl)-2-[4-(5-phenylpyrid-2-ylmethoxy)phenyl]propyl}-3,8-diaza-1-oxa-2-oxospiro[4,5]decane]	–	–	–
